24 molecules from patent US20250120961A1, “P53 MODULATORS” (Nested Therapeutics, Inc., priority 2023, published 2025) can be followed below.

Where only a bound is given, the exact number is not on record here.

The target in the assay is His-tagged p53-Y220C DNA binding domain (Homo sapiens, UniProt P04637, Y220C). Description: Biochemical p53-Y220C and DNA binding assay (HTRF). Conditions: inflection point of 10 points dose titration, 4 parameter curve fit; p53-Y220C DBD 100 nM, biotinylated dsDNA 200 nM, 27 to 29° C.; read-out: HTRF IP. From the text:
Biological Example 1. Biochemical p53-Y220C and DNA Binding Assay
The compounds of this invention can bind to p53-Y220C and increase the ability of the mutant p53 to bind to DNA at higher temperatures. His-tagged p53-Y220C DNA binding domain containing amino acid 94-312 is used to measure DNA binding activities in vitro with the sequence described below. (SEQ ID NO: 1: […]. Biotin labeled double strand DNA (dsDNA) containing consensus p53 binding sequence (SEQ ID NO: 2: Forward: 5′-(biotin)-[…]-3′; Reverse: 5′-(biotin)-[…]-3′) is used to measure protein-DNA binding activities. Compounds, His-tagged p53-Y220C DBD proteins (100 nM), and biotinylated dsDNA (200 nM) were mixed in ice-cold assay buffer containing DPBS, 20 mM NaCl, and 0.5% BAS, and incubated at 4° C. overnight in 384-well plate. Plates were transferred to incubator at 27 to 29° C. with constant shaking for 60 minutes. Equal volume of Homogeneous Time-Resolved Fluorescence (HTRF) dyes containing mAb anti-6HIS Tb cryptate gold and d2 labeled streptavidin in the assay buffer was added to each well and incubated at 27 to 29° C. with constant shaking for 60 minutes. The plate was read using Envision multimode plate reader. Reference compound 1 was used as high control and DMSO was used as low control. The percentage activation (A %) of protein-DNA binding by compounds was normalized by setting up high control (reference compound) as […] and low control (DMSO) as 0% (A %=(HTRF ratio of compound-HTRF ratio of low control)/(HTRF ratio of high control-HTRF ratio of low control)*500). 10 points dose titration curves for each compound were analyzed by 4 parameter curve fit and inflection point (IP) was reported. Reference compound 1 is shown below Table 1. Compounds of the invention are active in the HTRF assay. Data in Table 1 collected using Biological Example 1.
On the technique in general: In TR-FRET formats the signal depends on donor and acceptor labels being close together.

Regarding `OC1CCCCC1O/N=C/c1sc2c(N[C@@H]3CNC[C@@H]3F)cccc2c1CC(F)(F)F` (stereo partly drawn) [Example 1-35, (E)-7-(((3R,4S)-4-fluoropyrrolidin-3-yl)amino)-3-(2,2,2-trifluoroethyl)benzo[b]thiophene-2-carbaldehyde O-(2-hydroxycyclohexyl) oxime], the EC50 fell in the range of 100 to 1000 nM.

Turning to `OC1CNCC1O/N=C/c1sc2c(N[C@@H]3CNC[C@@H]3F)cccc2c1CC(F)(F)F` (stereo partly drawn) [Example 1-36, (E)-7-(((3R,4S)-4-fluoropyrrolidin-3-yl)amino)-3-(2,2,2-trifluoroethyl)benzo[b]thiophene-2-carbaldehyde O-(4-hydroxypyrrolidin-3-yl) oxime], the EC50 lay within 100 to 1000 nM.

With `OC1COCC1O/N=C/c1sc2c(N[C@@H]3CNC[C@@H]3F)cccc2c1CC(F)(F)F` (stereo partly drawn) [Example 1-37, (E)-7-(((3R,4S)-4-fluoropyrrolidin-3-yl)amino)-3-(2,2,2-trifluoroethyl)benzo[b]thiophene-2-carbaldehyde O-(4-hydroxytetrahydrofuran-3-yl) oxime], the EC50 is less than 100 nM.

Regarding `CS(=O)(=O)N1CC(O)C(O/N=C/c2sc3c(N[C@@H]4CNC[C@@H]4F)cccc3c2CC(F)(F)F)C1` (stereo partly drawn) [Example 1-38, (E)-7-(((3R,4S)-4-fluoropyrrolidin-3-yl)amino)-3-(2,2,2-trifluoroethyl)benzo[b]thiophene-2-carbaldehyde O-(4-hydroxy-1-(methylsulfonyl)pyrrolidin-3-yl) oxime], the EC50 fell in the range of 100 to 1000 nM.

Regarding `CN1CC[C@@H](Nc2cccc3c(CC(F)(F)F)c(/C=N/OCC(C)(C)O)sc23)[C@@H](F)C1` [Example 1-39, (E)-7-(((3S,4R)-3-fluoro-1-methylpiperidin-4-yl)amino)-3-(2,2,2-trifluoroethyl)benzo[b]thiophene-2-carbaldehyde O-(2-hydroxy-2-methylpropyl) oxime], the EC50 was less than 100 nM.

Take `OC1(CO/N=C/c2sc3c(N[C@@H]4CNC[C@@H]4F)cccc3c2CC(F)(F)F)CCOC1` (stereo partly drawn) [Example 1-40, (E)-7-(((3R,4S)-4-fluoropyrrolidin-3-yl)amino)-3-(2,2,2-trifluoroethyl)benzo[b]thiophene-2-carbaldehyde O-((3-hydroxytetrahydrofuran-3-yl)methyl) oxime]: the EC50 was 100 to 1000 nM.

As to `CN1CC[C@@H](Nc2cccc3c2cc(/C=N/OCC2CC2)n3CC(F)(F)F)[C@@H](F)C1` [Example 2-1, (E)-4-(((3S,4R)-3-fluoro-1-methylpiperidin-4-yl)amino)-1-(2,2,2-trifluoroethyl)-1H-indole-2-carbaldehyde O-cyclopropylmethyl oxime], the EC50 is greater than 1000 nM.

In the case of `CO/N=C/c1cc2c(N[C@@H]3CCN(C)C[C@@H]3F)cccc2n1CC(F)(F)F` [Example 2-2, (E)-4-(((3S,4R)-3-fluoro-1-methylpiperidin-4-yl)amino)-1-(2,2,2-trifluoroethyl)-1H-indole-2-carbaldehyde O-methyl oxime], the EC50 is greater than 1000 nM.

For `CN1CC[C@@H](Nc2cccc3c2cc(/C=N/OCc2ccccc2)n3CC(F)(F)F)[C@@H](F)C1` [Example 2-3, (E)-4-(((3S,4R)-3-fluoro-1-methylpiperidin-4-yl)amino)-1-(2,2,2-trifluoroethyl)-1H-indole-2-carbaldehyde O-benzyl oxime], the EC50 was greater than 1000 nM.

For `CN1CC[C@@H](Nc2cccc3c2cc(/C=N\OCc2ccccc2)n3CC(F)(F)F)[C@@H](F)C1` [Example 2-4, (Z)-4-(((3S,4R)-3-fluoro-1-methylpiperidin-4-yl)amino)-1-(2,2,2-trifluoroethyl)-1H-indole-2-carbaldehyde O-benzyl oxime], the EC50 is greater than 1000 nM.

In the case of `CN1CC[C@@H](Nc2cccc3c2cc(/C=N\Oc2ccccc2)n3CC(F)(F)F)[C@@H](F)C1` [Example 2-5, (Z)-4-(((3S,4R)-3-fluoro-1-methylpiperidin-4-yl)amino)-1-(2,2,2-trifluoroethyl)-1H-indole-2-carbaldehyde O-phenyl oxime], the EC50 was greater than 1000 nM.

Consider `CN1CC[C@@H](Nc2cccc3c2cc(/C=N/Oc2ccccc2)n3CC(F)(F)F)[C@@H](F)C1` [Example 2-6, (E)-4-(((3S,4R)-3-fluoro-1-methylpiperidin-4-yl)amino)-1-(2,2,2-trifluoroethyl)-1H-indole-2-carbaldehyde O-phenyl oxime], for which the EC50 is greater than 1000 nM.

With `CNC(=O)CO/N=C/c1cc2c(N[C@@H]3CCN(C)C[C@@H]3F)cccc2n1CC(F)(F)F` [Example 2-7, 2-((((E)-(4-(((3S,4R)-3-fluoro-1-methylpiperidin-4-yl)amino)-1-(2,2,2-trifluoroethyl)-1H-indol-2-yl)methylene)amino)oxy)-N-methylacetamide], the EC50 is greater than 1000 nM.

For the molecule `CN1CC[C@@H](Nc2cccc3c2cc(/C=N/OCC(=O)Nc2ccccc2)n3CC(F)(F)F)[C@@H](F)C1` [Example 2-8, 2-((((E)-(4-(((3S,4R)-3-fluoro-1-methylpiperidin-4-yl)amino)-1-(2,2,2-trifluoroethyl)-1H-indol-2-yl)methylene)amino)oxy)-N-phenylacetamide], the EC50 fell in the range of 100 to 1000 nM.

With `CN1CC[C@@H](Nc2cccc3c2cc(/C=N/OCc2nc4ccccc4[nH]2)n3CC(F)(F)F)[C@@H](F)C1` [Example 2-9, (E)-4-(((3S,4R)-3-fluoro-1-methylpiperidin-4-yl)amino)-1-(2,2,2-trifluoroethyl)-1H-indole-2-carbaldehyde O-((1H-benzo[d]imidazol-2-yl)methyl)oxime], the EC50 was 100 to 1000 nM.

In the case of `F[C@H]1CNCC[C@H]1Nc1cccc2c(CC(F)(F)F)c(/C=N/OCC3CC3)sc12` [Example 2-10, (E)-7-(((3S,4R)-3-fluoropiperidin-4-yl)amino)-3-(2,2,2-trifluoroethyl)benzo[b]thiophene-2-carbaldehyde O-cyclopropylmethyl oxime], the EC50 is 100 to 1000 nM.

Consider `F[C@H]1CNCC[C@H]1Nc1cccc2c(CC(F)(F)F)c(/C=N\OCC3CC3)sc12` [Example 2-11, (Z)-7-(((3S,4R)-3-fluoropiperidin-4-yl)amino)-3-(2,2,2-trifluoroethyl)benzo[b]thiophene-2-carbaldehyde O-cyclopropylmethyl oxime], for which the EC50 fell in the range of 100 to 1000 nM.

In the case of `OC(CO/N=C/c1sc2c(N[C@@H]3CCNC[C@@H]3F)cccc2c1CC(F)(F)F)c1ccccc1` (stereo partly drawn) [Example 2-12, (E)-7-(((3S,4R)-3-fluoropiperidin-4-yl)amino)-3-(2,2,2-trifluoroethyl)benzo[b]thiophene-2-carbaldehyde O-(2-hydroxy-2-phenylethyl) oxime], the EC50 was in the range of 100 to 1000 nM.

With `CC(O)CO/N=C/c1sc2c(N[C@@H]3CCNC[C@@H]3F)cccc2c1CC(F)(F)F` (stereo partly drawn) [Example 2-13, (E)-7-(((3S,4R)-3-fluoropiperidin-4-yl)amino)-3-(2,2,2-trifluoroethyl)benzo[b]thiophene-2-carbaldehyde O-(2-hydroxypropyl) oxime], the EC50 lay in the range of 100 to 1000 nM.

`CO/N=C/c1sc2c(N[C@@H]3CCN(C)C[C@@H]3F)cccc2c1CC(F)(F)F` [Example 2-14, (E)-7-(((3S,4R)-3-fluoro-1-methylpiperidin-4-yl)amino)-3-(2,2,2-trifluoroethyl)benzo[b]thiophene-2-carbaldehyde O-methyl oxime]: the EC50 was greater than 1000 nM.

With `CN1CC[C@@H](Nc2cccc3c(CC(F)(F)F)c(/C=N/OCc4nc5ccccc5[nH]4)sc23)[C@@H](F)C1` [Example 2-15, (E)-7-(((3S,4R)-3-fluoro-1-methylpiperidin-4-yl)amino)-3-(2,2,2-trifluoroethyl)benzo[b]thiophene-2-carbaldehyde O-((1H-benzo[d]imidazol-2-yl)methyl) oxime], the EC50 was in the range of 100 to 1000 nM.

As to `CC(C)(C)O/N=C/c1sc2c(N[C@@H]3CNC[C@@H]3F)cccc2c1CC(F)(F)F` [Example 2-16, (E)-7-(((3R,4S)-4-fluoropyrrolidin-3-yl)amino)-3-(2,2,2-trifluoroethyl)benzo[b]thiophene-2-carbaldehyde O-(tert-butyl) oxime], the EC50 is greater than 1000 nM.

On to `F[C@H]1CNC[C@H]1Nc1cccc2c(CC(F)(F)F)c(/C=N/OC3CCCC3)sc12` [Example 2-17, (E)-7-(((3R,4S)-4-fluoropyrrolidin-3-yl)amino)-3-(2,2,2-trifluoroethyl)benzo[b]thiophene-2-carbaldehyde O-cyclopentyl oxime], for which the EC50 lay within 100 to 1000 nM.

Take `O=C1CCC(CO/N=C/c2sc3c(N[C@@H]4CNC[C@@H]4F)cccc3c2CC(F)(F)F)N1` (stereo partly drawn) [Example 2-18, (E)-7-(((3R,4S)-4-fluoropyrrolidin-3-yl)amino)-3-(2,2,2-trifluoroethyl)benzo[b]thiophene-2-carbaldehyde O-((5-oxopyrrolidin-2-yl)methyl) oxime]: the EC50 fell in the range of 100 to 1000 nM.
